Results reported in US20100075969A1, “Angiogenesis” (UNIVERSITY OF LEICESTER, priority 2006, published 2010).

Columns and labels:
endothelial cells = assay: In vitro model of angiogenesis: tubule formation on Matrigel; format: cell-based
Experimental: An experimental in vitro model was employed to observe the effect of β2-AR ligands (ie agonists and antagonists) on endothelial cell vessel formation. […] The endothelial cells plated on the top of the Matrigel were maintained in a 37° C. incubator with 5% CO2 Tubule formation was observed every 4 hours up to 21 hours using an inverted Nikon Diaphot microscope.

B16-BL6 melanoma cells = assay: β2-AR/melanoma in-vivo study (B16-BL6 in SKH1 mice); details: for tumour surface area / tumour average surface area: s.c. pump, ICI 118,551 0.75 mg/kg/day or salbutamol 3 mg/kg/day, 7 mice per group
Excerpt: Twenty one, 5 week-old female SKH1 mice (immunocompetent, hairless albino strain, Charles River, Wilmington, Mass.) weighing 18 g-25 g were divided into 3 groups of 7 mice.
Melanomas were imaged daily by both transillumination and surface photography at 2× magnification, using an upright Nikon microscope controlled by Pixera software (San Jose, Calif.). Mice were sacrificed after 11 days by CO2 asphyxiation, and the tumor, lungs and the liver were excised and fixed in 10% buffered formalin for 7 days.
All mice were sacrificed by CO2 asphyxiation, 11 days post melanoma cell injection. The tumours were excised from their sub-dermal location, fixed in saline-buffered 10% formalin for 10 days, and then weighed. The average weight of the tumours from each group was calculated and statistically analysed.

[1] = test system: dermal microvascular endothelial cells; assay: Galvanotaxis in applied electric field, dermal microvascular endothelial cells; format: cell-based, human; details: electric field 100 mV/mm
Experimental: (§1) Endothelial cells were seeded at low density in medium within electrostatic chambers for 2-3 hours prior to exposure to an electric field (EF). A roof consisting of a No 1 cover slip was applied and sealed on top of the chamber, as previously described (in Pullar et al (2005) J Cell Sci 118 (Pt 9), 2023-2034; Pullar et al (2006) Mol Biol Cell and Pullar et al (2001) Cell Motil Cytoskeleton 50 (4), 207-217). A direct current EF of 100 mV/mm was applied through agar bridges connecting silver/silver chloride electrodes to the culture medium at either side of the chamber. The chamber was placed on an inverted microscope with temperature controlled at 37° C.
(§2) Time-lapse images were recorded every 10 minutes over 1 hour and analyzed with Improvision software as previously described (Pullar et al (2005) J Cell Sci 118 (Pt 9), 2023-2034; Pullar et al (2006) Mol Biol Cell and Pullar et al (2001) Cell Motil Cytoskeleton 50 (4), 207-217). […] Therefore, the average of directedness values of a population of cells gives an objective quantification of how, directionally, cells have moved within the electric field. […] Migration rate was analyzed with the following two parameters, ie trajectory speed (μm/min) is the total length of the migration trajectory of a cell divided by the given period of time (ie 60 minutes).

MTLn3 cells = assay: Galvanotaxis in applied electric field, MTLn3 mammary adenocarcinoma cells; format: cell-based
[2] = test system: chick chorioallantoic membrane (CAM); assay: Chick chorioallantoic membrane (CAM) assay; format: in vivo; details: day 8 chick embryos, 48 hours; 10 μM agonist, 10 μM forskolin or 10 nM ICI 118,551; control 15
Experimental: Fertilised chicken eggs were obtained within the first two days of embryonic development, and were cleaned and incubated at 37° C. for 24 hours. On day 3 of development, 1-2 ml of albumin was removed from the apex end of each egg with a sterile needle. A window of 1.5×1.5 cm was created in the shell with a Dremmel tool, and was sealed with clear adhesive tape. […] Images of the exposed vasculature were captured 48 hours later using a Nikon microscope/imaging system. Scale bar=1 mm. Bifurcation points were counted in four fields for the control/treatment groups.

[3] = test system: aortic macrovascular endothelial cells; assay: Galvanotaxis in applied electric field, aortic macrovascular endothelial cells; format: cell-based, human; details: electric field 100 mV/mm
Experimental: as §1, §2

[4] = test system: dermal microvascular endothelial cells; assay: Scratch (wound healing) assay, dermal microvascular endothelial cells; format: cell-based, human; details: 10 nM ICI 118,551 or 1 μM salbutamol
Experimental: Endothelial cells were grown to confluence in medium on plastic tissue culture dishes (Fisher Scientific, Pittsburgh, Pa.) coated with 60 μg/ml collagen I (Vitrogen 100, Collagen Corp., Palo Alto, Calif.) in PBS for 1 hour at 37° C. […] Demarcated areas of each wound were photographed on an inverted Nikon Diaphot microscope at the time of wounding (time 0) up to wound healing as described in Pullar et al., (2003) J Biol Chem 278 (25), 22555-22562. Image J was used to measure each demarcated wound area at time 0 and 20 hours post wounding and the results were averaged to calculate the % healing for control and β2-AR ligand-treated cells.

aortic rings = assay: Rat aortic ring assay (capillary outgrowth); format: cell-based; details: after 90 hours; 10 nM ICI 118,551 or 1 μM salbutamol; vs untreated
Experimental: A rat aortic ring assay (as described in Nicosia and Ottinetti (1990) Lab Invest 63 (1), 115-122; and Diglio et al (1989) Lab Invest 60 (4), 523-531) was used to study the effect of β2-AR ligands on vessel formation. Rat aorta was obtained from animals that were euthanised under a Home Office Approved Schedule 1 method. The aorta was cut into small rings with sterile scissors and each piece was submerged under a 50 μl bead of Matrigel in the bottom of each in a 24-well dish. […] Vessel growth was observed using an inverted Nikon Diaphot microscope every 30 hours and images were captured as described in Pullar et al (2005) J Cell Sci 118 (Pt 9), 2023-2034; Pullar et al (2006) Mol Biol Cell and Pullar et al (2001) Cell Motil Cytoskeleton 50 (4), 207-217.

[5] = 1 μM salbutamol, control cosine=0.5

| SMILES | time to highly organized, mature capillary network on Matrigel (endothelial cells; 10 nM ICI 118,551, untreated cells: within 21 hours) | average weight of tumours (B16-BL6 melanoma cells; 11 days post melanoma cell injection, vs control group) | number of mice without any signs of tumour development (B16-BL6 melanoma cells; after 3 days, of 7 mice, ICI 118,551 0.75 mg/kg/day) | tumour surface area (B16-BL6 melanoma cells; after 3 days) | number of mice with no visible signs of tumour development (B16-BL6 melanoma cells; after 7 days and by end of study (11 days), of 7 mice, ICI 118,551 0.75 mg/kg/day) | tumour average surface area (B16-BL6 melanoma cells; after 7 days) | size of excised tumours (photograph) (B16-BL6 melanoma cells; at eleven days, vs control) | increase in directional migration ([1]; 10 nM ICI 118,551) | effect on galvanotaxis (MTLn3 cells) | number of vessel bifurcation points [2] | increase in directional migration ([3]; 10 nM ICI 118,551) | increase in rate of wound closure [4] | capillary outgrowth from cut edges of aortic rings (aortic rings) | capillary network formed on Matrigel (endothelial cells; by 21 hours, 1 μM salbutamol) | surface area of the very large tumour of one mouse (B16-BL6 melanoma cells; after 7 days, single mouse, salbutamol 3 mg/kg/day) | migration directedness (cosine) [1, 5] | reduction of directional migration (MTLn3 cells) | migration directedness (cosine) [3, 5] |
| --- | --- | --- | --- | --- | --- | --- | --- | --- | --- | --- | --- | --- | --- | --- | --- | --- | --- | --- |
| Cc1ccc(OCC(O)C(C)NC(C)C)c2c1CCC2 (stereo not drawn) [ICI 118,551] | ≤ 12 h | statistically lower than that for the control group | two | 1.8+/−0.61 mm^2 | one | 4.4+/−1.5 mm^2 | much smaller than those in the control sample | ≤ 60% | little effect on galvanotaxis | > 50 | ≤ 60% | 40% | decreased the length of the capillaries |  |  |  |  |  |
| C=C[C@@]1(C)CC(=O)[C@]2(O)[C@@]3(C)[C@@H](O)CCC(C)(C)[C@@H]3[C@H](O)[C@H](OC(C)=O)[C@@]2(C)O1 [forskolin] |  |  |  |  |  |  |  |  |  | 5 |  |  |  |  |  |  |  |  |
| CC(C)(C)NCC(O)c1ccc(O)c(CO)c1 (stereo not drawn) [salbutamol] |  |  |  | 4.1+/−1.3 mm^2 |  | 10.4+/−2.9 mm^2 |  |  |  | 4 |  | 40% | significantly increased the length and number of the capillaries | disorganized, immature capillary network | 24.8 mm^2 | 0 | more than 50% | 0 |
